Patent publication US12018021B2 (UCB Biopharma SRL, priority 2018, dated 2024)

Biological target: IgE-Tb / sFcεRIα-Y131A-AF488 (Homo sapiens, UniProt P01854, N146Q/N252Q)
Assay: IgE-Tb / sFcεRIα-Y131A-AF488 FRET assay (protocol for examples 234 to 501)
Format: binding
Conditions: examples 234 to 501: compound with IgE-Tb 30 minutes before sFcεRIα-Y131A-AF488, incubated 18 hours at room temperature; read-out: Y131A FRET IC50 range
Procedure, shortened: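 Compounds (10-point 3-fold series, top usually 10 μM, 2% DMSO) preincubated 30 min with 5 nM IgE-Tb, then 25 nM sFcεRIα-Y131A-AF488 added; 18 h at room temperature in the dark. TR-FRET ratio 520/490 nm after 337 nm excitation, background-subtracted; IC50 by four-parameter logistic fit.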

Chain of IgE-Tb / sFcεRIα-Y131A-AF488 (P01854 whole entry N146Q/N252Q): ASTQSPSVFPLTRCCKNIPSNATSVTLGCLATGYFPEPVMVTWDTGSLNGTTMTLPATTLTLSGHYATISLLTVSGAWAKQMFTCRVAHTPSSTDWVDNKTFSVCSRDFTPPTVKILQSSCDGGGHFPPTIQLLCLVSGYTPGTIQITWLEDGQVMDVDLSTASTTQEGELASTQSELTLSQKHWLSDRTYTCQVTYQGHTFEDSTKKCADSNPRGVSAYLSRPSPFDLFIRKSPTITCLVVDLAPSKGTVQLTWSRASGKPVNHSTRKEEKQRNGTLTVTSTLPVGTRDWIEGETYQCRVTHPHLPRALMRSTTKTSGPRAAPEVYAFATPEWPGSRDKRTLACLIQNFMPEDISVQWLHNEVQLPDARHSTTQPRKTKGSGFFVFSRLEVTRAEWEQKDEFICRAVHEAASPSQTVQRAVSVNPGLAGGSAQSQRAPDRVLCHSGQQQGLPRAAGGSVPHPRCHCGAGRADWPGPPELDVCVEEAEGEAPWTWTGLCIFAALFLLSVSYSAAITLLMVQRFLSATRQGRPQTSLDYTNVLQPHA

Row | SMILES | IC50
1 | Cn1nc(C(F)F)cc1Nc1nncn1[C@H]1CCc2sc(NC(=O)C3CC3)c(C(=O)N[C@H]3CC34CC4)c2C1 (single isomer, unassigned) [Example 495] | < 1000 nM
2 | CC(=O)N1CC[C@](C)(Nc2nncn2[C@H]2CCc3sc(NC(=O)C4CC4)c(C(=O)NCC4CC4)c3C2)C1 (single isomer, unassigned) [Example 239, (5S)-5-[3-[[(3*)-1-acetyl-3-methyl-pyrrolidin-3-yl]amino]-1,2,4-triazol-4-yl]-2-(cyclopropanecarbonylamino)-N-(cyclopropylmethyl)-4,5,6,7-tetrahydrobenzothiophene-3-carboxamide] | < 1000 nM
3 | Cn1nc(OC(F)F)cc1Nc1nncn1[C@H]1CCc2sc(NC(=O)C3CC3)c(C(=O)NC3CC(F)(F)C3)c2C1 [Example 450, (5S)-2-(cyclopropanecarbonylamino)-N-(3,3-difluorocyclobutyl)-5-[3-[[5-(difluoromethoxy)-2-methylpyrazol-3-yl]amino]-1,2,4-triazol-4-yl]-4,5,6,7-tetrahydro-1-benzothiophene-3-carboxamide] | < 1000 nM
4 | Cn1nc(C(F)F)cc1Nc1nncn1[C@H]1CCc2sc(NC(=O)C3CC3)c(C(=O)N[C@H]3C[C@H](F)C3)c2C1 [Example 373, (5S)-2-(cyclopropanecarbonylamino)-5-[3-[[5-(difluoromethyl)-2-methylpyrazol-3-yl]amino]-1,2,4-triazol-4-yl]-N-(trans-3-fluorocyclobutyl)-4,5,6,7-tetrahydro-1-benzothiophene-3-carboxamide] | < 1000 nM
5 | Cn1nc(OC(F)F)cc1Nc1nncn1[C@H]1CCc2sc(NC(=O)C3CC3)c(C(=O)NCC3CCC3(F)F)c2C1 (stereo partly drawn) [Example 451, (5S)-2-(cyclopropanecarbonylamino)-N-[(2,2-difluorocyclobutyl)methyl]-5-[3-[[5-(difluoromethoxy)-2-methylpyrazol-3-yl]amino]-1,2,4-triazol-4-yl]-4,5,6,7-tetrahydro-1-benzothiophene-3-carboxamide] | < 1000 nM
6 | Cn1nc(OC(F)F)cc1Nc1nncn1[C@H]1CCc2sc(NC(=O)[C@H]3C[C@@H](F)C3)c(C(=O)NCC3CC3)c2C1 [Example 347, (5S)—N-(cyclopropylmethyl)-5-[3-[[5-(difluoromethoxy)-2-methylpyrazol-3-yl]amino]-1,2,4-triazol-4-yl]-2-[cis-(3-fluorocyclobutanecarbonyl)amino]-4,5,6,7-tetrahydro-1-benzothiophene-3-carboxamide] | < 1000 nM
7 | Cn1nc(OC(F)F)cc1Nc1nncn1[C@H]1CCc2sc(NC(=O)C3CC(F)(F)C3)c(C(=O)NCC3CC3)c2C1 [Example 346, (5S)—N-(cyclopropylmethyl)-2-[(3,3-difluorocyclobutanecarbonyl)amino]-5-[3-[[5-(difluoromethoxy)-2-methylpyrazol-3-yl]amino]-1,2,4-triazol-4-yl]-4,5,6,7-tetrahydro-1-benzothiophene-3-carboxamide] | < 1000 nM
8 | Cn1nc(OC(F)F)cc1Nc1nncn1[C@H]1CCc2sc(NC(=O)C3CC3)c(C(=O)NCC3CC(F)(F)C3)c2C1 [Example 446, (5S)-2-(cyclopropanecarbonylamino)-N-[(3,3-difluorocyclobutyl)methyl]-5-[3-[[5-(difluoromethoxy)-2-methylpyrazol-3-yl]amino]-1,2,4-triazol-4-yl]-4,5,6,7-tetrahydro-1-benzothiophene-3-carboxamide] | < 1000 nM
9 | C[S@](=N)(=O)c1cccc(Nc2nncn2[C@H]2CCc3sc(NC(=O)C4CC4)c(C(=O)NCC4CC4)c3C2)c1 (single isomer, unassigned) [Example 253] | < 1000 nM
10 | Cn1nc(OC(F)F)cc1Nc1nncn1[C@H]1CCc2sc(NC(=O)C3CC3)c(C(=O)NC[C@H]3C[C@H]3F)c2C1 (mixture of isomers) [Example 454, (5S)-2-(cyclopropanecarbonylamino)-5-[3-[[5-(difluoromethoxy)-2-methylpyrazol-3-yl]amino]-1,2,4-triazol-4-yl]-N-[[(1RS,2RS)-2-fluorocyclopropyl]methyl]-4,5,6,7-tetrahydro-1-benzothiophene-3-carboxamide] | < 1000 nM
11 | COc1cc(Nc2nncn2[C@H]2CCc3sc(NC(=O)[C@@H]4CC45CC5)c(C(=O)NCC4CC4)c3C2)n(C)n1 (relative stereo) [Example 455, (5S)—N-(cyclopropylmethyl)-5-[3-[(5-methoxy-2-methyl-pyrazol-3-yl)amino]-1,2,4-triazo-4-yl]-2-[[(2R*)-spiro[2.2]pentane-2-carbonyl]amino]-4,5,6,7-tetrahydrobenzothiophene-3-carboxamide (* or S)] | < 1000 nM
12 | Cn1nc(C(F)F)cc1Nc1nncn1[C@H]1CCc2sc(NC(=O)[C@H]3C[C@H](F)C3)c(C(=O)NC[C@H]3C[C@@H]3F)c2C1 [Example 471, (5S)-5-[3-[[5-(difluoromethyl)-2-methylpyrazol-3-yl]amino]-1,2,4-triazol-4-yl]-2-[trans-(3-fluorocyclobutanecarbonyl)amino]-N-[[(1R,2S)-2-fluorocyclopropyl]methyl]-4,5,6,7-tetrahydro-1-benzothiophene-3-carboxamide] | < 1000 nM
13 | O=C(NCC1CC1)c1c(NC(=O)C2CC2)sc2c1C[C@@H](n1cnnc1Nc1ccc(C(F)(F)F)nc1)CC2 [Example 427, (5S)-2-(cyclopropanecarbonylamino)-N-(cyclopropylmethyl)-5-[3-[[6-(trifluoromethyl)-3-pyridyl]amino]-1,2,4-triazol-4-yl]-4,5,6,7-tetrahydrobenzothiophene-3-carboxamide] | < 1000 nM
14 | Cn1nc(C(F)F)cc1Nc1nncn1[C@H]1CCc2sc(NC(=O)C3CC3)c(C(=O)NC[C@H]3CC3(F)F)c2C1 (single isomer, unassigned) [Example 382] | < 1000 nM
15 | CS(=O)(=O)c1cccc(Nc2nncn2[C@H]2CCc3sc(NC(=O)C4CC45CC5)c(C(=O)NCC4CC4)c3C2)n1 (single isomer, unassigned) [Example 256, (5S)—N-(cyclopropylmethyl)-5-[3-[(6-methylsulfonyl-2-pyridyl)amino]-1,2,4-triazol-4-yl]-2-[[(2S*)-spiro[2.2]pentane-2-carbonyl]amino]-4,5,6,7-tetrahydrobenzothiophene-3-carboxamide] | < 1000 nM
16 | CC1C(Nc2nncn2[C@H]2CCc3sc(NC(=O)C4CC4)c(C(=O)NCC4CC4)c3C2)CCN1S(C)(=O)=O (single isomer, unassigned) [Example 274] | < 1000 nM
17 | Cc1nc(C#N)ccc1Nc1nncn1[C@H]1CCc2sc(NC(=O)C3CC3)c(C(=O)NCC3CC3)c2C1 [Example 300, (5S)-5-[3-[(6-cyano-2-methyl-3-pyridyl)amino]-1,2,4-triazol-4-yl]-2-(cyclopropanecarbonylamino)-N-(cyclopropylmethyl)-4,5,6,7-tetrahydrobenzothiophene-3-carboxamide] | < 1000 nM
18 | Cn1nc(C(F)F)cc1Nc1nncn1[C@H]1CCc2sc(NC(=O)[C@H]3CC34CC4)c(C(=O)NC[C@@H]3CC3(F)F)c2C1 (single isomer, unassigned) [Example 409] | < 1000 nM
19 | Cn1nc(OC(F)(F)Cl)cc1Nc1nncn1[C@H]1CCc2sc(NC(=O)[C@H]3C[C@H]3F)c(C(=O)NCC3CC3)c2C1 [Example 293, (5S)-5-[3-[[5-[chloro(difluoro)methoxy]-2-methyl-pyrazol-3-yl]amino]-1,2,4-triazol-4-yl]-N-(cyclopropylmethyl)-2-[[(1R,2R)-2-fluorocyclopropanecarbonyl]amino]-4,5,6,7-tetrahydrobenzothiophene-3-carboxamide] | < 1000 nM
20 | Cc1ccc(N2CC[C@H](Nc3nncn3[C@H]3CCc4sc(NC(=O)C5CC5)c(C(=O)NCC5CC5)c4C3)C2)nn1 [Example 240, (5S)-2-cyclopropaneamido-N-(cyclopropylmethyl)-5-(3-{[(35)-1-(6-methylpyridazin-3-yl)pyrrolidin-3-yl]amino}-4H-1,2,4-triazol-4-yl)-4,5,6,7-tetrahydro-1-benzothiophene-3-carboxamide] | < 1000 nM
21 | Cc1nscc1Nc1nncn1[C@H]1CCc2sc(NC(=O)C3CC34CC4)c(C(=O)NCC3CC3)c2C1 (stereo partly drawn) [Example 329, (5S)—N-(cyclopropylmethyl)-5-[3-[(3-methyl-1,2-thiazol-4-yl)amino]-1,2,4-triazol-4-yl]-2-(spiro[2.2]pentane-2-carbonylamino)-4,5,6,7-tetrahydro-1-benzothiophene-3-carboxamide] | < 1000 nM
22 | Cn1nc(C(F)(F)F)cc1Nc1nncn1[C@H]1CCc2sc(NC(=O)[C@H]3C[C@H]3F)c(C(=O)NCC3CC3)c2C1 (mixture of isomers) [Example 355, (5S)—N-(cyclopropylmethyl)-2-[[(1RS,2RS)-2-fluorocyclopropanecarbonyl]amino]-5-[3-[[2-methyl-5-(trifluoromethyl)pyrazol-3-yl]amino]-1,2,4-triazol-4-yl]-4,5,6,7-tetrahydro-1-benzothiophene-3-carboxamide] | < 1000 nM
23 | Cn1nc(C(F)F)cc1Nc1nncn1[C@H]1CCc2sc(NC(=O)C3CC3)c(C(=O)NC[C@H]3C[C@H](F)C3)c2C1 (racemic) [Example 497, (5S)-2-(cyclopropanecarbonylamino)-5-[3-[[5-(difluoromethyl)-2-methyl-pyrazol-3-yl]amino]-1,2,4-triazol-4-yl]-N-[(3-fluorocyclobutyl)methyl]-4,5,6,7-tetrahydrobenzothiophene-3-carboxamide] | < 1000 nM
24 | Cn1nc(C(F)(F)F)cc1Nc1nncn1[C@H]1CCc2sc(NC(=O)[C@H]3C[C@H]3F)c(C(=O)N[C@H]3CC34CC4)c2C1 (single isomer, unassigned) [Example 394] | < 1000 nM
25 | Cn1nc(C(F)F)cc1Nc1nncn1[C@H]1CCc2sc(NC(=O)C3CC3)c(C(=O)NC[C@H]3CC34CC4)c2C1 (single isomer, unassigned) [Example 386] | < 1000 nM
